Data taken from patent publication US20210214303A1, “SCORPION VENOM BENZOQUINONE DERIVATIVES AND USES THEREOF” (priority 2018, published 2021).
Converted amounts (≈) assume the structure as drawn.

Key:
[1] = test system: Staphylococcus aureus; assay: broth microdilution assay (MIC); format: cell-based; conditions: S. aureus, read-out: minimum inhibitory concentration (MIC)
Description: FIG. 3D illustrates the determination of the minimal inhibitory concentrations (MICs) of the red and blue 1,4 benzoquinones against Staphylococcus aureus. The MICs determined by the broth microdilution assay are 4 μg/mL for the red 1,4 benzoquinone and 6 μg/mL for the blue 1,4 benzoquinone. Ampicillin was used as a positive control. Each result is reported as the mean±SD.
This difference was confirmed using a broth microdilution assay (FIG. 3D). The minimum inhibitory concentration (MIC) for S. aureus growth was 4 μg/mL for the red 1,4 benzoquinone and 6 μg/mL for the blue 1,4 benzoquinone (FIG. 3D, Table 1). Ampicillin (MIC=0.5 μg/mL) was used as a positive control (ESCMID Eo (2003) Clin. Microbiol. Infect. 9: ix-xv; Pieterse et al., (2010) Brazil. J. Microbiol. 41: 133-145). These compounds were bactericidal at their MICs, killing 90% of S. aureus in 6 h and 99.9% in 24 h (Table 2).

[2] = test system: M. tuberculosis; conditions: related compounds from the literature (Tran et al. 2004); cited from earlier work

Structure (SMILES)	MIC [1]	MIC [2]
CC1(C)S[C@@H]2[C@H](NC(=O)[C@H](N)c3ccccc3)C(=O)N2[C@H]1C(=O)O [Ampicillin, reference compound]	0.5 µg/mL (≈ 1.43 µM)	
O=C1C=CC(=O)c2ccccc21 [1,4-napthoquinone]		100 µg/mL (≈ 632 µM)
O=C1C=CC(=O)C=C1 [1,4-benzoquinone]		25 µg/mL (≈ 231 µM)
